Values of other authors in patent publication US4713385A, “Alkoxy and dialkoxyalkyl esters of dihydrolysergic acid and related compounds useful as 5HT receptor antagonists” (Eli Lilly and Company, priority 1985, dated 1987).

Assays:
5HT2 receptors [1] = conditions: Garbrecht compounds; in words
[2] = biological target: vascular alpha adrenergic receptors
5HT2 receptors [3] = conditions: effect mediated by 5HT2 receptors; in words
[4] = biological target: vascular dopaminergic receptors
[5] = biological target: vascular histaminergic receptors

CC(O)C(C)OC(=O)[C@@H]1C[C@@H]2c3cccc4c3c(cn4C(C)C)C[C@H]2N(C)C1 (stereo partly drawn) [LY53857, 1-isopropyl-6-methyl-8β-(1-methyl-2-hydroxy)propoxycarbonyl-5R-ergoline]
peripheral serotonin antagonist activity against 5HT2 receptors (5HT2 receptors [1]): most active peripheral serotonin antagonist
Kd ([2]; Cohen et al. J.P.E.T., 227, 327 (1983), read-out: Kdissoc (vascular alpha adrenergic receptors)): ~10 µM
affinity for vascular alpha adrenergic receptors ([2]; in words): minimal affinity
antagonism of vascular contraction to serotonin (5HT2 receptors [3]): potent antagonist of vascular contraction to serotonin
Kd ([4]; Cohen et al. J.P.E.T., 227, 327 (1983), read-out: Kdissoc (vascular dopaminergic receptors)): ~10 µM
affinity for vascular dopaminergic receptors ([4]; in words): minimal affinity
Kd ([5]; Cohen et al. J.P.E.T., 227, 327 (1983), read-out: Kdissoc (vascular histaminergic receptors)): ~10 µM
affinity for vascular histaminergic receptors ([5]; in words): minimal affinity
